In US8802209B2, “Multi-layered plastic polymeric container for the storage of pharmaceutical compositions” (Ceva Santé Animale, priority 2007, dated 2014):

Assay: Analysis of additives in the multi-layered plastic container before and after sterilization by irradiation
Type: physicochemical
Details: After irradiation - dose of 25 kGy
Procedure: A physico-chemical study of the outer layers made of polypropylene before and after irradiation at 25 kGy was performed.

Row | SMILES | Quantity of additives in polypropylene (ppm)
1 | CC(C)(C)c1cc(Cn2c(=O)n(Cc3cc(C(C)(C)C)c(O)c(C(C)(C)C)c3)c(=O)n(Cc3cc(C(C)(C)C)c(O)c(C(C)(C)C)c3)c2=O)cc(C(C)(C)C)c1O [IRGANOX 3114, 1,3,5-tris(3,5-di-tert-butyl-4-hydroxybenzyl)-s-triazine-2,4,6(1H,3H,5H)-trione] | Not detected
2 | CC(C)(C)c1ccc(OP(Oc2ccc(C(C)(C)C)cc2C(C)(C)C)Oc2ccc(C(C)(C)C)cc2C(C)(C)C)c(C(C)(C)C)c1 [IRGAPHOS 168, phosphite tris(2,4-bis(1,1-dimethylethyl)-phenyl)] | Not detected
3 | CC(C)(C)c1cc(CCC(=O)OCC(COC(=O)CCc2cc(C(C)(C)C)c(O)c(C(C)(C)C)c2)(COC(=O)CCc2cc(C(C)(C)C)c(O)c(C(C)(C)C)c2)COC(=O)CCc2cc(C(C)(C)C)c(O)c(C(C)(C)C)c2)cc(C(C)(C)C)c1O [IRGANOX 1010, pentaerythrityl tetrakis(3-(3,5-di-tert-butyl-4-hydroxyphenyl)-propionate)] | Not detected
